For this data set, the target named is T1, hPXR (Homo sapiens, UniProt O75469).
T1 sequence (O75469 1-434): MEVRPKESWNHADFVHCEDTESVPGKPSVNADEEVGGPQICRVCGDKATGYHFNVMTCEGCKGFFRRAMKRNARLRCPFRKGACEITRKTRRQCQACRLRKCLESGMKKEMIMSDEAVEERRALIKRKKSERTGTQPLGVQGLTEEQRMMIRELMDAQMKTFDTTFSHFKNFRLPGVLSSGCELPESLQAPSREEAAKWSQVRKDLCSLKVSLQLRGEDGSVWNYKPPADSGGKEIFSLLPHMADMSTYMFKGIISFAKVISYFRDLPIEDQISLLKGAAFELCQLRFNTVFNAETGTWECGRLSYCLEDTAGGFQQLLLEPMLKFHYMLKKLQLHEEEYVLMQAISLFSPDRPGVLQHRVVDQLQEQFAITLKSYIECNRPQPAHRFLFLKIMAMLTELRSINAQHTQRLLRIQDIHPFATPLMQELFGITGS
In words: CYP3A4 XREM reporter construct cotransfected with hPXR expression vector (pSG-hPXR) in HepG2 cells. The following applies: FIG. 4; for action on the XREM via the hPXR: HepG2, XREM reporter + hPXR expression vector. An excerpt:
The present inventors cotransfected a CYP3A4 5′-flanking region construct, containing the XREM and linked to a luciferase reporter, into HepG2 cells either with or without a hPXR expression construct (pSG-hPXR).
Many drugs induce the transcription of the CYP3A4 gene.

With `CCC1(c2ccccc2)C(=O)NC(=O)NC1=O` [phenobarbitone], the “action on the XREM via the hPXR” value is “act on the XREM via the hPXR”.
In the case of `Clc1ccccc1C(c1ccccc1)(c1ccccc1)n1ccnc1` [clotrimazole], the “action on the XREM via the hPXR” value was “act on the XREM via the hPXR”. In addition, the “induction of the XREM construct” value (HepG2 cells transfected with XREM reporter) is listed as “induced the XREM construct in a manner analogous to that that occurs in vivo”.

Source of the values: US9029336B2, “Xenobiotic related induction of gene expression” (The University of Sydney, priority 1998, dated 2015).
